Converted amounts (≈) assume the structure as drawn. “And” between values parts separate entries of the source, which are not always exact repeats. Equal values may be shown once. Read-outs that look alike come from different tables or passages of the source.
Legend:
X. citri strain 306 = assay: Antibiogram, agar disc-diffusion assay; details: X. citri strain 306, LBON-agar, 24 h at 28 °C
Experimental: (§1) X. citri 306 was cultivated on LBON medium (10 g/l tryptone; 5 g/l yeast extract; pH 7.0) at 28 °C. The susceptibility to distinct antibiotics was evaluated using the disc-diffusion method. Briefly, a bacterial suspension was prepared in sterile saline solution (0.85% NaCl) to an optical density of 0.1 (approximately 1.5 × 10^8 CFU/ml) and used to inoculate the surface of an LBON-agar plate (1.7% agar; 150 × 15 mm Petri dish; 55 ml/dish). Antibiotic discs were applied 15 min after inoculum, and after incubation for 24 h at 28 °C, images were recorded with a camera. The minimum inhibitory concentration was obtained through broth microdilution method. These assays were performed with eight replicates for each compound concentration. Serial 2-fold dilutions of compounds were prepared in DMSO and 1 μl transferred to sterile 96-well assay plates containing 49 μl of the culture media (LBON). Then, 50 μl of a bacterial suspension (1 × 10^6 CFU/ml) was added to each well. Plates were incubated at 28 °C for 24 h before addition of 10 μl of resazurin 0.02%. After a new incubation (up to 4 h), the fluorescence (λExc/Em = 570–615 nm) was measured using a plate reader (CLARIOstar, BMG LabTech). Blanks were prepared with culture media. Positive and negative controls were prepared with DMSO and tetracycline (10 μg/ml).

X. citri 306 = assay: X. citri growth inhibition, broth microdilution with resazurin; details: for MIC (minimum inhibitory concentration): X. citri 306, LBON, 28 °C, 24 h, at least 90% growth inhibition; for EC50 / MIC: Xanthomonas citri, 306, 24 h; for EC50: read-out: EC50 (growth inhibition); for MIC: read-out: MIC (minimum inhibitory concentration)
Experimental: as §1

XcMetRS (WT) [1] = molecular target: T1, XcMetRS (WT) (Xanthomonas citri pv. citri, UniProt Q8PMP0)
T1 sequence (Q8PMP0 whole entry): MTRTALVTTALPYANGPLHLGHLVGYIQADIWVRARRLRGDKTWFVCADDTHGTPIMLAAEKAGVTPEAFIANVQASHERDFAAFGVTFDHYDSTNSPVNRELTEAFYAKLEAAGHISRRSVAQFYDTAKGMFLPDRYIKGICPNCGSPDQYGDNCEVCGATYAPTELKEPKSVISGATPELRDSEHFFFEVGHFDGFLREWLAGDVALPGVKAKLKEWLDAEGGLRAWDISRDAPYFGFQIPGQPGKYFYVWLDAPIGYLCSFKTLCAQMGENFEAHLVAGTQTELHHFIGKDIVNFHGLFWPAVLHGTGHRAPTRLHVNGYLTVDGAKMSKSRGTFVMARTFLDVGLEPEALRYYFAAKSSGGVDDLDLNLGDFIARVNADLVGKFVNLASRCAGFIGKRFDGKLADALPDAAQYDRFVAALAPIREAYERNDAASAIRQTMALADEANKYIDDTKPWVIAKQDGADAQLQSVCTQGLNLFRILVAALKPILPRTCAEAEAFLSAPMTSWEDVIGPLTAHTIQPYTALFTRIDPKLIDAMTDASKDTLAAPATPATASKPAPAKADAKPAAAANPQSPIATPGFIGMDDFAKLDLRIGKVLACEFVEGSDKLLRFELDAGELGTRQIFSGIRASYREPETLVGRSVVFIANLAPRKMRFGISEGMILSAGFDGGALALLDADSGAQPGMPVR
Experimental: Inhibition studies using the XcMetRS-ScAMD-CjIMPDH-diaphorase–coupled assay (Fig. S2) were performed at various concentrations (half-log serial dilutions starting at 100 μM) of the inhibitors in anhydrous dimethyl sulfoxide (DMSO). Assays were performed at 25 °C in black 384-well microplates in 25-μl final volume in 0.1 M Tris HCl, pH 7.5, 0.15 M KCl, 10 mM MgCl2, and 0.01% Triton X-100. […] Plots were prepared in GraphPad Prism.

XcMetRS (WT) [2] = molecular target: T1, XcMetRS (WT); format: binding; parameters: His tag with TEV site (from pET28-TEV vector) (N); made in house; host or cells: E. coli BL21(DE3)
Experimental: All wells contained 2% DMSO used to prepare stock solutions of REP3123 and REP8839. Protein unfolding was monitored on a 7500 Real-Time PCR System (Applied Biosystems) cycler by measuring fluorescence (λEmission = 580 nm) during 71 cycles starting at 25 °C, with a one-degree Celsius increment at each cycle. Experimental data points were normalized and adjusted to the equation y = ymin + ((ymax − ymin)/(1 + e^(Tm − T)/S)), where ymax and ymin are normalized fluorescence values, Tm is the melting temperature, T is the temperature, and S is the slope.

XcMetRS = molecular target: T2, XcMetRS (Xanthomonas citri pv. citri, UniProt Q8PMP0); assay: Isothermal titration calorimetry (ITC); format: binding; details: for Kd: 20 °C
T2 construct: His tag with TEV site (from pET28-TEV vector) (N); made in house; host or cells: E. coli BL21(DE3)
T2 sequence (Q8PMP0 whole entry): as above
Experimental: ITC measurements were performed on a MicroCal VP-ITC calorimeter equipped with a VPViewer2000 software for data acquisition at the Spectroscopy and Calorimetry Lab facility (LEC) from the Brazilian Bioscience National Laboratory/Brazilian Centre for Research in Energy and Materials (LNBio/CNPEM). Purified XcMetRS (10 μM) was titrated against the ligands in 0.1 M Hepes, pH 7.5, containing 0.3 M NaCl, 10 mM MgCl2, 5% glycerol in the absence or presence of AMP or ATP at a 5 mM final concentration. To avoid nucleotide dilution, AMP/ATP was added to both ligand and receptor solutions. The ligands were added to the protein solutions kept in a 2-ml experimental cell using a titration syringe. The reactions were performed at 20 °C under agitation (200 rpm), starting with a first injection of 2 μl of ligand solution (200 μM) during 4 s, followed by 27 injections of 10 μl with 200-s intervals between injections. Titration results were corrected for ligand dilution, and all the data were analyzed using Origin7.0 software.

XcMetRS (WT) [3] = molecular target: T1, XcMetRS (WT); assay: XcMetRS enzyme kinetic assay (coupled fluorometric AMP/resorufin assay); format: biochemical; parameters: His tag with TEV site (from pET28-TEV vector) (N); made in house; host or cells: E. coli BL21(DE3)
Description: Similarly, vmax^app, K’, and Hill slope (h) were obtained for ATP using the equation v = (vmax^app x [S]^h)/(K’ + [S]^h). The catalytic rate constant (kcat) was estimated by the equation kcat = vmax^app/Et, where Et is the enzyme concentration in the assay.

[4] = molecular target: coupled enzyme system (ScAMD, CjIMPDH, diaphorase); assay: Control: inhibition of the coupled enzyme system used to detect AMP production; details: read-out: IC50 on coupled enzyme system, without XcMetRS step
Experimental: Inhibition studies using the XcMetRS-ScAMD-CjIMPDH-diaphorase–coupled assay (Fig. S2) were performed at various concentrations (half-log serial dilutions starting at 100 μM) of the inhibitors in anhydrous dimethyl sulfoxide (DMSO). Assays were performed at 25 °C in black 384-well microplates in 25-μl final volume in 0.1 M Tris HCl, pH 7.5, 0.15 M KCl, 10 mM MgCl2, and 0.01% Triton X-100.
Values correspond to measurements of four independent experiments and error bars denote standard deviations.

CC1(C)S[C@@H]2[C@H](NC(=O)[C@H](N)c3ccccc3)C(=O)N2[C@H]1C(=O)O [ampicillin]
susceptibility phenotype of X. citri in antibiogram (X. citri strain 306): resistant

CO[C@@]1(NC(=O)Cc2cccs2)C(=O)N2C(C(=O)O)=C(COC(N)=O)CS[C@@H]21 [cefoxitin]
susceptibility phenotype of X. citri in antibiogram (X. citri strain 306): resistant

C[C@H]1[C@H](NC(=O)/C(=N\OC(C)(C)C(=O)O)c2csc(N)n2)C(=O)N1S(=O)(=O)O [Aztreonam]
susceptibility phenotype of X. citri in antibiogram (X. citri strain 306): resistant

CO/N=C(\C(=O)N[C@@H]1C(=O)N2C(C(=O)O)=C(CSc3nc(=O)c(=O)[nH]n3C)CS[C@H]12)c1csc(N)n1 [ceftriaxone]
susceptibility phenotype of X. citri in antibiogram (X. citri strain 306): resistant

CC(C)(O/N=C(\C(=O)N[C@@H]1C(=O)N2C(C(=O)[O-])=C(C[n+]3ccccc3)CS[C@H]12)c1csc(N)n1)C(=O)O [ceftazidime]
susceptibility phenotype of X. citri in antibiogram (X. citri strain 306): resistant

CO/N=C(\C(=O)N[C@@H]1C(=O)N2C(C(=O)O)=C(COC(C)=O)CS[C@H]12)c1csc(N)n1 [cefotaxime]
susceptibility phenotype of X. citri in antibiogram (X. citri strain 306): resistant

CC(=O)OCC1=C(C(=O)O)N2C(=O)[C@@H](NC(=O)Cc3cccs3)[C@H]2SC1 [cephalothin]
susceptibility phenotype of X. citri in antibiogram (X. citri strain 306): resistant

O=C1CN(/N=C/c2ccc([N+](=O)[O-])o2)C(=O)N1 [nitrofurantoin]
susceptibility phenotype of X. citri in antibiogram (X. citri strain 306): resistant

N[C@@H](C(=O)N[C@@H]1C(=O)N2C(C(=O)O)=C(Cl)CS[C@H]12)c1ccccc1 [cefaclor]
susceptibility phenotype of X. citri in antibiogram (X. citri strain 306): resistant

neomycin
susceptibility phenotype of X. citri in antibiogram (X. citri strain 306): close to breakpoint values considered for a resistant phenotype

CO/N=C(\C(=O)N[C@@H]1C(=O)N2C(C(=O)[O-])=C(C[N+]3(C)CCCC3)CS[C@H]12)c1csc(N)n1 [cefepime]
susceptibility phenotype of X. citri in antibiogram (X. citri strain 306): resistant

CC1(C)S[C@@H]2[C@H](NC(=O)[C@H](N)c3ccc(O)cc3)C(=O)N2[C@H]1C(=O)O [amoxicillin]
susceptibility phenotype of X. citri in antibiogram (X. citri strain 306): resistant

C=C(F)c1sc(CNCCCNc2cc(O)c3ccccc3n2)c(C)c1Br [REP8839]
MIC (minimum inhibitory concentration) (X. citri 306): 64 µg/mL (≈ 142 µM)
EC50 (X. citri 306): 25.5 ± 1 µg/mL (≈ 56.6 µM)
MIC (X. citri 306): 64 µg/mL (≈ 142 µM)
IC50 (XcMetRS (WT) [1]): 20.8 ± 6.5 µM
Tm (XcMetRS (WT) [2]; ligand 25 µM): 50,6 ± 0,1 ^oC
Tm (XcMetRS (WT) [2]; ligand + ATP:Mg): 52,8 ± 0,1 ^oC
Kd (XcMetRS; in the presence of AMP (5 mM)): 630 nM and 600 nM
Kd (XcMetRS; in the presence of ATP (5 mM)): 1370 nM and 1400 nM
KD (XcMetRS; in the absence of nucleotides): no KD for REP8839 could be measured

NC[C@H]1O[C@H](O[C@H]2[C@H](O)[C@@H](O[C@H]3O[C@H](CO)[C@@H](O)[C@H](N)[C@H]3O)[C@H](N)C[C@@H]2N)[C@H](N)C[C@@H]1O [tobramycin]
susceptibility phenotype of X. citri in antibiogram (X. citri strain 306): close to breakpoint values considered for a resistant phenotype

C[C@@H](O)[C@H]1C(=O)N2C(C(=O)O)=C(SCCN=CN)C[C@H]12 [imipenem]
susceptibility phenotype of X. citri in antibiogram (X. citri strain 306): resistant

Nc1ncnc2c1ncn2[C@@H]1O[C@H](COP(=O)(O)OP(=O)(O)OP(=O)(O)O)[C@@H](O)[C@H]1O [ATP]
Tm (XcMetRS (WT) [2]; ligand 5 mM): 51.3 ^oC
Tm (XcMetRS (WT) [2]; ligand 5 mM, listed as ATP:Mg): 51,3 ± 0,3 ^oC
Tm shift (XcMetRS (WT) [2]; ligand alone): 3.0 °C
kcat (XcMetRS (WT) [3]; ATP as varied substrate): 19.8 ± 0.3 min⁻¹
h (Hill slope) (XcMetRS (WT) [3]; ATP varied): 3.3
K’ (XcMetRS (WT) [3]; ATP varied, L-Met 200 μM): 0.95 ± 0.08 mM

O=c1cc(NCCCN[C@@H]2CCOc3c(Br)cc(Br)cc32)[nH]c2ccsc12 [REP3123]
IC50 [4]: 26.4 µM
MIC (minimum inhibitory concentration) (X. citri 306): > 128 µg/mL
EC50 (X. citri 306): 60.5 ± 1 µg/mL (≈ 118 µM)
MIC (X. citri 306): > 128 µg/mL
Tm (XcMetRS (WT) [2]; ligand 25 µM): 47,9 ± 0,1 ^oC
Tm (XcMetRS (WT) [2]; ligand + ATP:Mg): 50,7 ± 0,1 ^oC

CSCC[C@H](N)C(=O)O [L-Met, L-methionine]
Tm (XcMetRS (WT) [2]; ligand 5 mM): 55,9 ± 0,2 ^oC
kcat (XcMetRS (WT) [3]; L-Met as varied substrate): 12.37 ± 0.28 min⁻¹

From publication PMC8165550, “Molecular basis for diaryldiamine selectivity and competition with tRNA in a type 2 methionyl-tRNA synthetase from a Gram-negative bacterium” (The Journal of Biological Chemistry, 2021)
